This passage reports TGI results from PubChem BioAssay (NCI).

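Interpolation was linear, between the two tested concentrations surrounding the appropriate level; five concentrations were tested over 48 hours in 96-well plates. TGI: concentration producing complete growth inhibition.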

What all share (assay): inhibition of tumour cell growth, NCI panel, 48 h
Assay [1] concerns A549 NSCLC.
Assay [2] has as its system CAKI-1 renal.
Assay [3] has as its system CCRF-CEM leukemia.
Assay [4] deals with COLO 205 colon.
Assay [5] relates to HCC-2998 colon.
For assay [6], the system named is HT29 colon.
Assay [7] deals with IGROV1 ovarian.
The subject of assay [8] is KM12 colon.
For assay [9], the system named is NCI-H226 lung.
Assay [10] relates to OVCAR-3 ovarian.
Assay [11] deals with OVCAR-4 ovarian.
Assay [12] concerns PC-3 prostate.
Assay [13] has as its system RXF 393 renal.
The test system of assay [14] is SK-MEL-2 melanoma.
The test system of assay [15] is SK-OV-3 ovarian.
The test system of assay [16] is SN12C renal.
Assay [17] relates to SNB-19 CNS.
In assay [18] the test system is SR leukemia.
The subject of assay [19] is T-47D breast.

Consider `COc1ccc2c(C)cc(N/N=C(\C)C=O)nc2c1`, for which the TGI in assay [1] came out at 38.6 µM; in assay [2], 27.8 µM; in assay [3], 4 µM; in assay [4], 30.6 µM; in assay [5], 24.5 µM; in [6], 25 µM. The TGI stood at 33.5 µM in [7]; 25.8 µM in [8]; 24.7 µM in assay [9]; 7.59 µM in assay [10]; 25.5 µM in assay [11]; 24.2 µM in assay [12]. Moreover, the TGI amounted to 30.2 µM in [13]; 33.1 µM in assay [14]; 23.2 µM in assay [15]; 26.8 µM in assay [16]; 31.6 µM in [17]; 3.79 µM in assay [18]. The compound also had a TGI in [19] of 41.3 µM.
In the case of `CN(C)CCCNC(=O)CCNC(=O)c1cc(NC(=O)c2cc(NC(=O)c3cc(NC(=O)c4nc(NC(=O)CCCNC(=O)c5cc(NC(=O)c6cc(NC(=O)c7cc(NC(=O)c8nccn8C)cn7C)cn6C)cn5C)cn4C)cn3C)cn2C)cn1C`, the TGI in [1], in assay [2], in [3], in assay [4], in assay [5] and in assay [6] was above 100 µM throughout. For the same compound, the TGI in assay [7], in assay [8], in [9], in assay [10], in assay [11] and in assay [12] was above 100 µM throughout. The TGI in [13], in [14], in assay [15], in assay [16], in assay [17] and in assay [18] was above 100 µM each time. In assay [19], this compound displayed a TGI above 100 µM.
Consider `O=C1c2ccccc2S(=O)(=O)c2c1cccc2[N+](=O)[O-]`, for which the TGI is above 10 µM in assay [1]; 9.83 µM in assay [2]; 4.19 µM in [3]; 2.77 µM in assay [4]; above 10 µM in assay [5]; above 7.01 µM in [6]. The TGI in assay [7] was 5.08 µM; in assay [8], 5.08 µM; in [9], above 10 µM; in assay [10], 2.51 µM; in [11], 4.6 µM; in assay [12], above 9.02 µM. Besides, the TGI in [13] was 8.44 µM; in [14] it was above 10 µM; in assay [15], above 10 µM; in assay [16] it was 6.56 µM; in [17], above 10 µM; in assay [18], 5.28 µM. The compound also yielded a TGI in assay [19] of 5.9 µM.
As for `O=C(/C=C/c1csc(-c2ccccc2)n1)NCc1ccc(C(=O)NCCc2ccccc2)cc1`, the TGI was above 100 µM in assay [1]; 50.3 µM in assay [2]; above 100 µM in assay [3]; above 100 µM in [4]; above 100 µM in assay [5]; 30.4 µM in assay [6]. For the same compound, the TGI in assay [7] was above 100 µM; in assay [8], above 100 µM; in assay [9], 90.2 µM; in assay [10], above 100 µM; in [11] it was above 100 µM; in assay [12] it was above 100 µM. The TGI in assay [13] was 23.4 µM; in [14] it was above 100 µM; in [15] it was 56.2 µM; in assay [16], above 100 µM; in assay [17], 49.1 µM; in [18] it was above 100 µM. The TGI in [19] is above 100 µM.
As to `O=C(CCCN1CCC2(CC1)OC(=O)N(c1ccccc1)C2=O)c1ccccc1`, the TGI in assay [1], in assay [2], in assay [3], in assay [4], in [5] and in assay [6] was above 100 µM in each case. In addition, the TGI in assay [7], in assay [8], in assay [9], in [10], in assay [11] and in assay [12] was above 100 µM throughout. Further, the TGI in assay [13], in [14], in assay [15], in [16], in assay [17] and in assay [18] was above 100 µM each time. In assay [19], this compound yielded a TGI above 100 µM.
As to `NC(=O)c1cc2cc(Cl)cc(Cl)c2oc1=Nc1ccc(F)cc1`, the TGI in [1] is 70.1 µM; in [2], 38 µM; in assay [3], above 100 µM; in assay [4] it was 40.6 µM; in assay [5] it was 48.9 µM; in [6], above 100 µM. In addition, the TGI is 87.3 µM in assay [7]; above 100 µM in assay [8]; 43.5 µM in [9]; 52.9 µM in [10]; 70.6 µM in [11]; 44.3 µM in assay [12]. Moreover, the TGI stood at 37 µM in [13]; 31.6 µM in assay [14]; 56.5 µM in assay [15]; 38 µM in assay [16]; 42.3 µM in assay [17]; 24.8 µM in assay [18]. Also, the TGI in [19] worked out at 73.5 µM.
With `CCOC(CN=C=S)OCC`, the TGI in assay [1], in assay [2], in assay [3], in assay [4], in assay [5] and in [6] was above 10 µM each time. Moreover, the TGI in assay [7], in [8], in [9], in assay [10], in assay [11] and in [12] was above 10 µM in each case. The TGI in assay [13], in assay [14], in assay [15], in assay [16], in assay [17] and in [18] was above 10 µM in each case. Moreover, the TGI in [19] was above 10 µM.
